Measured values from patent US20180325893A1, “SUBACUTE ADMINISTRATION OF NMDA MODULATORS ALONE OR IN COMBINATION” (Northwestern University, priority 2015, published 2018).
“Also recorded” adds a separate entry of the source. Peptide text beside a SMILES is read from it.

Experiments:
Type in all cases: in vivo
male C57BL/6J mice [1] = assay: NOR in subchronic ketamine-treated mice (Examples 2 and 3)
Procedure: (§1) Three cohorts of male C57BL/6J mice (2½-3 month old, Jackson, Mass., USA), N=40, 45, and 48 were used in Examples 1, 2, 3 respectively. Mice were group housed (five/cage) in a controlled environment held at 21±2° C. and 50±15% relative humidity with a 14:10 h light-dark period (lights on: 05:00 am). All experiments were conducted during the light phase. Food and water were available ad libitum. The mice were habituated to the colony upon arrival for a week, during which time, they were not handled. All experiments were conducted in accordance with Institutional Animal Care and Use Committee of Northwestern University, Chicago.
(§2) Rapastinel was obtained from SAI Life Sciences (India). PCP was a generous gift from National Institute of Drug Abuse. Ketamine was purchased from Sigma Aldrich (St. Louis, Mo.). Lurasidone was provided by Sumitomo Dainippon Pharma Co., Ltd. (Osaka, Japan). Rapastinel, PCP, and ketamine were dissolved in 0.9% sterile saline (Sal). PCP and ketamine were administered intraperitoneally (ip), at a volume of 10 mL/kg body weight. Rapastinel was given intravenously (iv). The dose of rapastinel (1.0 mg/kg) was chosen because it produced optimal enhancement in learning in both young adult and aged rats and in a trace eye blink conditioning task in rabbits. […] The dose for lurasidone (0.1 mg/kg) was chosen based on prior NOR studies in C57BL/6J mice which determined the effective dose of lurasidone to restore NOR in subchronic PCP-treated mice.
(§3) For acute drug treatments, rapastinel (1.0 mg/kg, iv), lurasidone (0.1 mg/kg, i.p.) or ketamine (30 mg/kg, ip) were administered 30 min prior to the acquisition trial of the NOR task (described below) to the subchronic ketamine or subchronic PCP-treated animals. For subchronic drug treatments, 7-10 mice/cohort were randomly assigned to Sal, PCP, or ketamine. The Sal-treated mice received 0.9% NaCl; the drug treatment groups received either PCP (10 mg/kg; ip), or ketamine (30 mg/kg; ip) twice daily for 7 days. This was followed by a 7 day washout period during which time, mice were left undisturbed in the home cage until initiation of habituation (see below).
(§4) NOR testing in mice was slightly modified from Hashimoto et al (Hashimoto K.; Fujita Y.; Shimizu E.; Iyo M. European Journal of Pharmacology 2005, 519:114-7). […] Similar observations were made when large objects were used. […] It was observed that C57BL/6J mice explored less when the duration of trials were 3 or 5. […] The NOR apparatus consisted of an open box made of Plexiglas (52 cm L; 52 cm W; 31 cm H) with white walls and a solid floor. The box was positioned approximately 30 cm above the floor, centered on a table such that the overhead lights could not provide a spatial cue. One day after the 7 day washout from subchronic drug treatment or Sal, mice were habituated to the empty NOR arena, as a group, for one hour, on each of three days prior to the acquisition trial. During the acquisition trial, the mice were allowed to explore two identical objects (e.g. A1 and A2) for 10 min. This was followed by a 24-hour inter-trial interval, after which the mice were returned to the home cage. During the retention trial, the mice were allowed to explore the familiar object (A) from the acquisition trial and a novel object (e.g. B). The location of the novel object in the retention trial was randomly assigned for each mouse tested using a pseudorandom schedule. […] Also, to avoid bias or olfactory trails, objects were used in triplicates, i.e. that the same object that was used in the acquisition trial was not presented in retention trial. Behavior was recorded on video for blind scoring of object exploration. Object exploration was defined as an animal licking, sniffing, or touching the object with the forepaws while sniffing. […] The discrimination index (DI) [(time spent exploring the novel object—time spent exploring the familiar object)/total exploration time] was then calculated for retention trials. […]

male C57BL/6J mice [2] = assay: Novel object recognition (NOR), acute drug treatment / acute ketamine-induced deficit (Example 1); conditions: for discrimination index (DI) / NOR deficit: Example 1, FIG. 1; for preference for novel versus familiar object (exploration time), retention trial: Example 1
Procedure: as §1, §2, §3, §4

male C57BL/6J mice [3] = assay: NOR in subchronic PCP-treated mice (Example 2); conditions: for preference for novel versus familiar object, retention trial: Example 2
Procedure: as §1, §2, §3
NOR testing in mice was slightly modified from Hashimoto et al (Hashimoto K.; Fujita Y.; Shimizu E.; Iyo M. European Journal of Pharmacology 2005, 519:114-7). […] Similar observations were made when large objects were used. […] It was observed that C57BL/6J mice explored less when the duration of trials were 3 or 5. […] The NOR apparatus consisted of an open box made of Plexiglas (52 cm L; 52 cm W; 31 cm H) with white walls and a solid floor. The box was positioned approximately 30 cm above the floor, centered on a table such that the overhead lights could not provide a spatial cue. One day after the 7 day washout from subchronic drug treatment or Sal, mice were habituated to the empty NOR arena, as a group, for one hour, on each of three days prior to the acquisition trial. During the acquisition trial, the mice were allowed to explore two identical objects (e.g. A1 and A2) for 10 min. This was followed by a 24-hour inter-trial interval, after which the mice were returned to the home cage. […] Behavior was recorded on video for blind scoring of object exploration. […] The discrimination index (DI) [(time spent exploring the novel object—time spent exploring the familiar object)/total exploration time] was then calculated for retention trials. […]

[4] = acute drug plus sal, rapastinel 1.0 mg/kg, ketamine 30 mg/kg
[5] = acute drug plus sal, 30 min prior to acquisition trial, rapastinel 1.0 mg/kg iv, ketamine 30 mg/kg ip

`CNC1(c2ccccc2Cl)CCCCC1=O` (stereo not drawn) [ketamine, Ketamine, reference compound] was tested, and the “discrimination index (DI)” value (male C57BL/6J mice [1]; Example 2, FIG. 2, subchronic ketamine alone, compared to sal plus sal) was “significantly reduced”, the “preference for novel versus familiar object, retention trial” value (male C57BL/6J mice [1]; Example 2, subchronic ketamine 30 mg/kg ip twice daily 7 days, 7 day washout) was “abolished” and the “discrimination index (DI)” value (male C57BL/6J mice [1]; Example 3, FIG. 3, subchronic ketamine plus sal, compared to saline controls) was “significant reductions in the DI”. The “preference for novel versus familiar object, retention trial” value (male C57BL/6J mice [1]; Example 3, subchronic ketamine alone) was “abolished”, the “discrimination index (DI) / NOR deficit” value (male C57BL/6J mice [2]; [4]) was “induced a significant NOR deficit; also recorded: significantly reduced” and the “preference for novel versus familiar object (exploration time), retention trial” value (male C57BL/6J mice [2]; [5]) was “abolished”.
With `CC(O)C(N)C(=O)N1CCCC1C(=O)N1CCCC1C(=O)NC(C(N)=O)C(C)O` (stereo not drawn) [rapastinel, Rapastinel] (H-TPPT-NH2; configuration not given here) the “discrimination index (DI) / NOR deficit” value (male C57BL/6J mice [1]; Example 2, FIG. 2, acute rapastinel 1.0 mg/kg in subchronic ketamine-treated mice) was “significantly increased”, the “discrimination index (DI) / NOR deficit” value (male C57BL/6J mice [1]; Example 2, FIG. 2, acute rapastinel 1.0 mg/kg in subchronic ketamine-treated mice, listed as rap) was “significantly reversed” and the “preference for novel versus familiar object, retention trial” value (male C57BL/6J mice [1]; Example 2, acute rapastinel 1.0 mg/kg in subchronic ketamine-treated mice) was “explored the novel object significantly more compared to the familiar object”. For the same molecule, the “discrimination index (DI) / NOR deficit” value (male C57BL/6J mice [1]; Example 3, FIG. 3, subchronic ketamine-treated mice given sub-effective dose rapastinel 0.3 mg/kg and/or sub-effective dose lurasidone 0.1 mg/kg) was “neither drug above at these doses was effective; also recorded: significant reductions in the DI”, the “preference for novel versus familiar object, retention trial” value (male C57BL/6J mice [1]; Example 3, subchronic ketamine-treated mice given sub-effective dose rapastinel 0.3 mg/kg and/or sub-effective dose lurasidone 0.1 mg/kg) was “abolished” and the “discrimination index (DI) / NOR deficit” value (male C57BL/6J mice [2]; [4]) was “did not induce NOR deficit”. The “discrimination index (DI) / NOR deficit” value (male C57BL/6J mice [2]; rapastinel 1.0 mg/kg plus acute ketamine 30 mg/kg) was “significantly prevented the acute ketamine-induced decrease in DI”, the “discrimination index (DI) / NOR deficit” value (male C57BL/6J mice [2]; rapastinel 1.0 mg/kg plus acute ketamine 30 mg/kg, listed as Rap) was “significantly prevented the ket-induced NOR deficit” and the “preference for novel versus familiar object (exploration time), retention trial” value (male C57BL/6J mice [2]; [5]) was “showed a clear preference for the novel compared to the familiar object”. For the same molecule, the “preference for novel versus familiar object (exploration time), retention trial” value (male C57BL/6J mice [2]; rapastinel 1.0 mg/kg prior to acute ketamine 30 mg/kg) was “showed clear preference for the novel compared to the familiar object”, the “discrimination index (DI) / NOR deficit” value (male C57BL/6J mice [3]; Example 2, FIG. 2, acute rapastinel 1.0 mg/kg in subchronic PCP-treated mice) was “significantly increased” and the “discrimination index (DI) / NOR deficit” value (male C57BL/6J mice [3]; Example 2, FIG. 2, acute rapastinel 1.0 mg/kg in subchronic PCP-treated mice, listed as rap) was “significantly reversed”. For the same molecule, the “preference for novel versus familiar object, retention trial” value (male C57BL/6J mice [3]; acute rapastinel 1.0 mg/kg in subchronic PCP-treated mice) was “explored the novel object significantly more compared to the familiar object”.
For `c1ccc(C2(N3CCCCC3)CCCCC2)cc1` [PCP, reference compound], the “discrimination index (DI)” value (male C57BL/6J mice [3]; Example 2, FIG. 2, subchronic PCP alone, compared to sal plus sal) was “significantly reduced” and the “preference for novel versus familiar object, retention trial” value (male C57BL/6J mice [3]; subchronic PCP 10 mg/kg ip twice daily 7 days, 7 day washout) was “abolished”.
